What was measured:
[1] = for Particle size: MALVERN mastersizer 2000, dispersant: light liquid paraffin; for mean particle diameter: amorphous solid as isolated and dried
[2] = 75% relative humidity, 40° C.
[3] = versus product with particle size of above 100 μm

With COCCCOc1ccnc(C[S+]([O-])c2nc3ccccc3[nH]2)c1C.[Na] (racemic) [Example 1, (±)sodium-2-[[[4-(3-methoxypropoxy)-3-methyl-pyridinyl]methyl]sulfinyl]1H-benzimidazole] the Particle size [1] was 10 to 50 μm and the mean particle diameter [1] was 10 to 50 μm.

Molecule COCCCOc1ccnc(C[S+]([O-])c2nc3ccccc3[nH]2)c1C.[Na] (racemic) [Example 2, (±)sodium-2-[[[4-(3-methoxypropoxy)-3-methyl-pyridinyl]methyl]sulfinyl]1H-benzimidazole] has a Particle size [1] of 15 to 55 μm and a mean particle diameter [1] of 15 to 55 μm.

In the case of COCCCOc1ccnc(C[S+]([O-])c2nc3ccccc3[nH]2)c1C.[Na] (racemic) [Example 6 of U.S. Pat. No. 5045552, (±)sodium-2-[[[4-(3-methoxypropoxy)-3-methyl-pyridinyl]methyl]sulfinyl]1H-benzimidazole, reference compound], the Particle size [1] is reported as 80 to 150 μm.

In the case of “(±)sodium-2-[[[4-(3-methoxypropoxy)-3-methyl-pyridinyl]methyl]sulfinyl]1H-benzimidazole [amorphous rabeprazole sodium]”, the stability [2] is reported as “stable”, the bioavailability [3] is reported as “better bioavailability” and the mean particle diameter [1] is reported as 10 to 55 μm.

Reference: patent US20080071089A1, “Process for the Manufacture of Rabeprazole Sodium” (Lupin Limited, priority 2005, published 2008)
